Data: ChEMBL document CHEMBL1201862, “PubChem BioAssay data set” (2004)
Several values for one entry are separate records, joined by “and”; a condition that tells them apart may be missing. Equal values may be shown once. Activity calls are given as the source filed them.

Legend:
[1] = biological target: T1, Corticotropin-releasing factor receptor 2/Corticotropin-releasing factor-binding protein (Homo sapiens, UniProt P24387+Q13324); assay: activators of CRF receptor 2 with binding protein – uHTS hits, confirmation (AID 602473); assay type: functional; conditions: read-out: EC50_Mean
T1 sequence (Q13324 whole entry): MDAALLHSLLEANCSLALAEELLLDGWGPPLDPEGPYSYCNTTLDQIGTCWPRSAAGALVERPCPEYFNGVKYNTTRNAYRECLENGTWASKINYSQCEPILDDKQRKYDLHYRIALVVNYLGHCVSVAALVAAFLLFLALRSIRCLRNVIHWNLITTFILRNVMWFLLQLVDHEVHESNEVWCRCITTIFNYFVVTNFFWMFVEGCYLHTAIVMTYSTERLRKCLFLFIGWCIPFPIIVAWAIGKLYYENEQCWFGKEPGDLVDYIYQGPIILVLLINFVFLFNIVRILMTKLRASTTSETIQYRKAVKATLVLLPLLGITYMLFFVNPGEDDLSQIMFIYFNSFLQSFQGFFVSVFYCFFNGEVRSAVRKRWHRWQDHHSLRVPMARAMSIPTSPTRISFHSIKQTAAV
T1 sequence (P24387 whole entry): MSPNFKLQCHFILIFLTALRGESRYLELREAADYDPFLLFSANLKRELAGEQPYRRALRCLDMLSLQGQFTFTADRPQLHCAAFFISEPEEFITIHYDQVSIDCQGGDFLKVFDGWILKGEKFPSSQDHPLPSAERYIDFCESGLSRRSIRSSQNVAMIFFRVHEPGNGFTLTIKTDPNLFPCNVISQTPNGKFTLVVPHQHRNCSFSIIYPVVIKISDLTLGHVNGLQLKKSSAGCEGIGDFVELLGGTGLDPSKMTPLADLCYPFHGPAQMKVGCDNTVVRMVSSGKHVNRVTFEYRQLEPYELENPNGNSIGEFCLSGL

[2] = biological target: T1, Corticotropin-releasing factor receptor 2/Corticotropin-releasing factor-binding protein; assay: Dose Response confirmation of uHTS hits for small molecule antagonists of the CRF-binding protein and CRF-R2 receptor complex.; assay type: functional; conditions: read-out: IC50_Mean
[3] = biological target: T2, Heat shock factor protein 1 (Mus musculus, UniProt P38532); assay: enhancement of HSF1-driven luciferase signal – cell-based, NIH3T3, luminescence, dose retest, confirmation (AID 435004); assay type: functional;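 also: stress induced by proteasome inhibitor MG132 added 30 min after compound; luciferase reporter driven by HSF1 response element in NIH3T3 cells; actives raise luminescence as potentiators of the MG132 stress response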
T2 sequence (P38532 whole entry): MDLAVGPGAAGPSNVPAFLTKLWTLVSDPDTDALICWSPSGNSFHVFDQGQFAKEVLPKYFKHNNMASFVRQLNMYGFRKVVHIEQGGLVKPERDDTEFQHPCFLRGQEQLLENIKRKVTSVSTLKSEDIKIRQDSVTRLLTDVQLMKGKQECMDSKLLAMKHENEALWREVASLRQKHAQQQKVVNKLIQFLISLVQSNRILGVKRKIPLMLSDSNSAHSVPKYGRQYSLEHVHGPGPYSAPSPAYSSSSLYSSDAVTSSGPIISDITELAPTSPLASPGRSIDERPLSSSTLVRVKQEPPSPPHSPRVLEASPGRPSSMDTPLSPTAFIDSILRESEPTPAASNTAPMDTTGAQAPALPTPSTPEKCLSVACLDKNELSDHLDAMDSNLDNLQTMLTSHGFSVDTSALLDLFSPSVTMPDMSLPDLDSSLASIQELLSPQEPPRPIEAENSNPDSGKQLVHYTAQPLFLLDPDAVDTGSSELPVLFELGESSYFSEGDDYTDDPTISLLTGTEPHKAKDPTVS

[4] = test system: P388/ADR; assay: cells; assay type: functional; conditions: Mus musculus
[5] = test system: SN12K1; assay: cells; assay type: functional; conditions: Homo sapiens
[6] = test system: P388; assay: cells; assay type: functional; conditions: Mus musculus
[7] = biological target: Glyceraldehyde-3-phosphate dehydrogenase (Homo sapiens, UniProt P04406)
[8] = biological target: T2, Heat shock factor protein 1; assay: decrease of HSF1-responsive luciferase luminescence – cell-based, NIH3T3, dose retest, confirmation (AID 2382); assay type: functional;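 also: NIH3T3 fibroblasts with HSF1-driven luciferase reporter stressed by proteasome inhibitor MG132; luminescence from HSF1-driven luciferase expression after 8 hours of MG132 stress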
[9] = test system: H4; assay: Luminescence Cell-Based Dose Response HTS to Identify Activators of 5'UTR Stem-Loop Driven Prion Protein mRNA Translation in H4 Neuroglioblastoma Cells. [Related pubchem assays: 1829 (Project Summary), 1814 (Primary HTS)]; assay type: functional; conditions: Homo sapiens
[10] = Luminescence Cell-Based Dose Response HTS to Identify Activators of Luciferase Translation or Activity in H4 […] Cells. [Related pubchem assays: 1829 (Project Summary), 1814 (Primary HTS)]; assay type: functional
[11] = biological target: Cytochrome P450 3A4 (Homo sapiens, UniProt P08684);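 also: CYP3A4 tested as one member of a cytochrome P450 panel screen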
[12] = biological target: Cytochrome P450 2C9 (Homo sapiens, UniProt P11712)
[13] = P. falciparum Dd2 growth inhibitors, dose response, SYBR Green, cherry-picked samples (AID 1159567); assay type: functional, cell-based
[14] = biological target: T3, Cytochrome P450 1A2 (Homo sapiens, UniProt P05177);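 also: PubChem cytochrome P450 panel assay, CYP1A2 panel member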
T3 sequence (P05177 whole entry): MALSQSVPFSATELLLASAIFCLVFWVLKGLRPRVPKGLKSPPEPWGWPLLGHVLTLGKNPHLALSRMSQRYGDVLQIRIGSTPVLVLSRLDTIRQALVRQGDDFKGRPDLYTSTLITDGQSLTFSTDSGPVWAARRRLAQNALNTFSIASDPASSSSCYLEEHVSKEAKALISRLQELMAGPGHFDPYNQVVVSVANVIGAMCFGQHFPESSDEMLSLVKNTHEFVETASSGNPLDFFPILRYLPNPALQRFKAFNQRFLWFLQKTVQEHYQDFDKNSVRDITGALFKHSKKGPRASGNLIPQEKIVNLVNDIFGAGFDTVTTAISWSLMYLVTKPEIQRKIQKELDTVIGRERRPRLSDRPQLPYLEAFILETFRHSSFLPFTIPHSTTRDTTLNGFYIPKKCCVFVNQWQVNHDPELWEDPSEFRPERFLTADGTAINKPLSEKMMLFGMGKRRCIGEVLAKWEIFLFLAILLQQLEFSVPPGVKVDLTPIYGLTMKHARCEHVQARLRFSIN

[15] = NIH3T3 cell viability loss – ATP luminescence, mouse fibroblasts, counter-screen, dose response (AID 2010); assay type: functional, cell-based;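 also: cells exposed to compound for about 90 hours before reading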
[16] = Trypanosoma cruzi growth suppression in host cells – NIH3T3 host cells, beta-gal luminescence, confirmation (AID 2044); assay type: functional, cell-based;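 also: intracellular parasites grown in NIH/3T3 mouse fibroblasts as host cells; luminescent beta-galactosidase reporter signal from transgenic T. cruzi replicating inside host cells; inhibitors lower the luminescence signal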

Sequence of Glyceraldehyde-3-phosphate dehydrogenase (P04406 whole entry): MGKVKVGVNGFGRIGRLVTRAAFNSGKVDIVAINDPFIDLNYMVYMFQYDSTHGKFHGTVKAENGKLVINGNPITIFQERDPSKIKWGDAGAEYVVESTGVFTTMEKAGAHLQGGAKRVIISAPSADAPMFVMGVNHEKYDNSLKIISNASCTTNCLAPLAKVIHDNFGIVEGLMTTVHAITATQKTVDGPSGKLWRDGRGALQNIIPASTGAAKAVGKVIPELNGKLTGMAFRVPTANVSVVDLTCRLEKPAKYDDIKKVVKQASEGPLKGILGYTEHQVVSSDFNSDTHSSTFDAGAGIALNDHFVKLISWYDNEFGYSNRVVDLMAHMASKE
Sequence of Cytochrome P450 2C9 (P11712 whole entry): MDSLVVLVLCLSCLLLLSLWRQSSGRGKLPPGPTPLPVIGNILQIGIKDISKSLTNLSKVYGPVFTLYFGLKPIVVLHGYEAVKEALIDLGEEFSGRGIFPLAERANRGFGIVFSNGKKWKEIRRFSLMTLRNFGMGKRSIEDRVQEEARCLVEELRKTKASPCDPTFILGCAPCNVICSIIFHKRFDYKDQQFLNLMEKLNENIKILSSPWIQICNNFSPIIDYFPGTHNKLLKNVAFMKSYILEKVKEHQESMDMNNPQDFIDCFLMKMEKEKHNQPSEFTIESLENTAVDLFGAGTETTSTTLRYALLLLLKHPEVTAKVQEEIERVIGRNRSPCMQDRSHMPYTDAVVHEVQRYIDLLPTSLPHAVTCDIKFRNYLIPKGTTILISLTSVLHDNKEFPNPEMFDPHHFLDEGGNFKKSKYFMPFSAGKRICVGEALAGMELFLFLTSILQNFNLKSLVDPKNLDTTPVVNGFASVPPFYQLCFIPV
Sequence of Cytochrome P450 3A4 (P08684 whole entry): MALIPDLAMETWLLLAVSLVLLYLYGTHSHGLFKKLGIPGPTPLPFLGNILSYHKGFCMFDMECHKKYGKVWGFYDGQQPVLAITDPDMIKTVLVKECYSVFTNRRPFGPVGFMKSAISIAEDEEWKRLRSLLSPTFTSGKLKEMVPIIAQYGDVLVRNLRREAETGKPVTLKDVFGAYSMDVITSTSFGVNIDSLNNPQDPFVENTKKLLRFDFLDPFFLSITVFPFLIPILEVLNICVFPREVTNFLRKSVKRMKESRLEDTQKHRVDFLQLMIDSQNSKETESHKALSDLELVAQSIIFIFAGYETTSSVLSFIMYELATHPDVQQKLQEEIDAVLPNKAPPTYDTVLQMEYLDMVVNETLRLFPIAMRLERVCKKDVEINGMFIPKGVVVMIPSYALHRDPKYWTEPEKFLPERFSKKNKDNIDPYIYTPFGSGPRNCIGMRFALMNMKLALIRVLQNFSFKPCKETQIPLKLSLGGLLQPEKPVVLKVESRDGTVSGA

CC(C)[C@H](NC(=O)OC(C)(C)C)C(=O)N/N=C/c1ccc2nccnc2c1
EC50 [1]: > 53 µM (inactive) | IC50 [2]: > 47.1 µM (inactive)

O=C(NCc1csc(-c2cccs2)n1)c1ccccc1
EC50 [1]: > 53 µM (inactive) | IC50 [2]: > 47.1 µM (inactive)

Clc1ccc(-n2cc(COCc3ccccc3)nn2)cc1
EC50 [1]: > 53 µM (inactive) | IC50 [2]: > 47.1 µM (inactive) | EC50 [3]: > 260 µM (inconclusive)

CCCCCCCCCCCCOCCCOP(=O)([O-])OCC[N+](C)(C)C
GI50 [4]: > 100 µM (inactive) | GI50 [5]: > 100 µM (inactive) | GI50 [6]: 27.9 µM (inactive)

CC(=O)N1N=C(c2cccc([N+](=O)[O-])c2)CC1c1ccc(Br)cc1 (stereo not drawn)
IC50 [7]: > 100 µM (not active)

C=CCOc1ccn(C)c(=O)n1
EC50 [8]: > 195 µM (not active)

Cc1nnc(N/N=C/c2cc(C)n(-c3ccc(F)cc3)c2C)n1N
EC50 [8]: 29.7 µM (active)

CCC(=O)Nc1ccc(NC(=O)c2oc3ccccc3c2C)cc1
EC50 [1]: > 53 µM (inactive) | IC50 [2]: > 47.1 µM (inactive)

O=c1cccc2n1Cc1cc3ccccc3nc1-2
EC50 [9]: 37.6 µM (active) | EC50 [10]: 38.3 µM (active)

N#Cc1ccc(CSC2=NCCN2)cc1
EC50 [1]: > 53 µM (inactive) | IC50 [2]: > 47.1 µM (inactive)

COCCNC(=O)COc1ccc(OCCNC[C@@H](O)COc2ccccc2)cc1
AC50 [11]: 31.6 µM (inconclusive)

Cc1cc(=O)oc2cc(OCC(=O)Nc3ccc(O)c(C(=O)O)c3)ccc12
IC50 [7]: > 100 µM (not active)

COc1cc2ccccc2cc1C(=O)N/N=C/c1ccc2c(c1)OCO2
EC50 [1]: > 53 µM (inactive) | IC50 [2]: > 47.1 µM (inactive)

CC(=O)C1=C(O)C(=O)N(Cc2cccnc2)C1c1ccc(O)cc1 (stereo not drawn)
EC50 [8]: > 195 µM (not active)

COc1ccc(CNc2nc3nc4c(c(O)n3n2)CCC4)cc1
AC50 [12]: 22.4 µM (inconclusive) | AC50 [11]: 39.8 µM (inconclusive)

O=C(c1cnccn1)N1CC(=O)N2[C@@H](CO)[C@H](c3ccc(C#CCc4ccccc4)cc3)[C@@H]2C1
AC50 [13]: 5.99 µM (active)

CNC(=S)N(CCc1c(C)[nH]c2ccc(C)cc12)Cc1cc(OC)c(OC)c(OC)c1
EC50 [8]: > 195 µM (not active)

O=C(Cc1ccsc1)Nc1ccc(S(=O)(=O)C(F)F)cc1
EC50 [8]: > 195 µM (not active)

CO[C@@H]1CN(C)C(=O)c2cc(NC(=O)Nc3ccc(C(F)(F)F)cc3)ccc2OC[C@@H](C)NC[C@@H]1C
AC50 [13]: 5.92 µM (active)

CN(c1ccccc1)c1ncccn1
EC50 [8]: > 195 µM (not active)

N#C[C@@H]1[C@@H](c2ccccc2-c2ccccc2F)[C@@H](CO)N1C(=O)C1CCOCC1
AC50 [13]: 24.2 µM (active)

COCC(=O)N1CCC[C@@]2(CCN(Cc3ccc(C#N)cc3)C2)C1
AC50 [11]: 12.6 µM (inconclusive)

Cc1nc(NC(=O)C2CC2)sc1C(=O)Nc1ccccc1Cl
EC50 [9]: 9.56 µM (active) | EC50 [10]: 11.6 µM (active)

O=c1c(-c2ccccc2)nc2cnc(N3CCOCC3)nc2n1-c1ccccc1
AC50 [11]: 20 µM (inconclusive)

COc1cccc(N2C(=O)C(Cl)=C(N3CCN[C@H](C)C3)C2=O)c1
IC50 [7]: > 50 µM (inconclusive)

N=C(Nc1ccc(I)cc1)NC1C2CC3CC(C2)CC1C3 (stereo not drawn)
AC50 [11]: 15.8 µM (inconclusive) | AC50 [14]: 39.8 µM (inconclusive)

COc1ccc(/C=N/OCc2nc3c4c(ncn3n2)Oc2ccc3ccccc3c2C4c2ccccc2)cc1 (stereo not drawn)
AC50 [12]: 1.26 µM (inconclusive) | AC50 [11]: 39.8 µM (inconclusive)

CN1CCc2c(sc3c2C(=O)NC(c2ccc(-c4ccc(Cl)cc4)o2)N3)C1 (stereo not drawn)
EC50 [8]: > 195 µM (not active)

O=C(Nc1cc2nn(-c3ccccc3)nc2cc1Cl)c1ccc([N+](=O)[O-])o1
IC50 [7]: > 100 µM (not active)

C#CCSc1nc(C)cc(C(=O)OCC)c1C#N
EC50 [1]: > 53 µM (inactive) | IC50 [2]: > 47.1 µM (inactive)

CCc1cc[n+](CC(=O)Nc2ccc(Cl)cc2Cl)cc1
EC50 [8]: > 195 µM (not active)

Cc1cc(C(=O)CN2CCC(C)CC2)c(C)n1-c1ccccc1F
EC50 [15]: > 60 µM (not active) | EC50 [16]: 1.18 µM (active) | EC50 [8]: < 0.16 µM (active)

CCOc1ccc(CNC(=O)c2ccc3nc(N4CCOCC4)sc3c2)cc1
EC50 [8]: > 195 µM (not active)

CCN1C(=O)[C@H]2[C@H]3[C@H](O)[C@H](O)C/C(=N/O[C@@H](C)c4cn([C@H](CO)Cc5ccccc5)nn4)[C@@H]3CC[C@@H]2C1=O
AC50 [11]: 3.16 µM (inconclusive) and 5.01 µM (inconclusive)

COc1cccc(N2CCN(C3=C(Cl)C(=O)N(c4ccnc(Cl)c4)C3=O)CC2)c1
IC50 [7]: > 50 µM (inconclusive)

COCCNC(=O)C(OC(=O)c1cccs1)c1ccccc1 (stereo not drawn)
EC50 [8]: > 195 µM (not active)

O=S(=O)(Cc1ccccc1)N1[C@H](CO)[C@@H](c2ccccc2)C12CN(CCC(F)(F)F)C2
AC50 [13]: 5.09 µM (active)

COc1cc(-c2ccc3cc(OC)c(OC)c(OC)c3c2)cc(OC)c1OC
EC50 [1]: > 53 µM (inactive) | IC50 [2]: > 47.1 µM (inactive)

CC1CCN(S(=O)(=O)c2ccc3c(c2)NC(=O)CS3)CC1
EC50 [1]: > 53 µM (inactive) | IC50 [2]: > 47.1 µM (inactive)

Cn1cnnc1SCC(=O)n1c2ccccc2c2ccccc21
AC50 [12]: 0.00562 µM (inconclusive) | AC50 [11]: 25.1 µM (inconclusive)

O=c1onc2cnc3ccccc3n12
AC50 [12]: 39.8 µM (inconclusive) | AC50 [11]: 31.6 µM (inconclusive)

COc1ccc(-n2nc(C)cc2N)cc1
EC50 [8]: > 195 µM (not active)
